Data taken from patent US20060014717A1, “Therapeutic compositions for use in prophylaxis or treatment of diarrheas” (priority 2002, published 2006).

How the values were obtained:
[1] = system: an ETEC and an EPEC strain; conditions: cited from earlier work
[2] = system: E. coli EIEC CCUG 38092; assay: Chromatogram binding assay, binding specificities of type strains; set-up: species or system Escherichia coli; conditions: prolonged sub-culture, 4 μg per lane
Method: Culture Conditions and Labeling—The E. coli strains were cultured on Luria-agar with the addition of 10 μl ^35S-methionine (400 tici; Amersham Pharmacia Biotech, U.K.) at 37° C. for 12 h. The bacteria were harvested by scraping, washed three times with phosphate-buffered saline (PBS), pH 7.3, and thereafter resuspended in PBS (with or without 1% mannose (w/v)) to 1×10^8 CFU/ml. The specific activities of the suspensions were approximately 1 cpm per 100 bacteria.
Thin-Layer Chromatography—Thin-layer chromatography of glycosphingolipids was performed on glass- or aluminum-backed silica gel 60 HPTLC plates (Merck, Darmstadt, Germany), using chloroform/methanol/water 60:35:8 (by volume) as solvent system. Chemical detection was done with anisaldehyde (6).
(§1) Glycosphingolipid Binding Assays—Binding of ^35S-labeled bacteria to glycosphingolipids on thin-layer chromatograms was done as reported (7). Dried chromatograms were dipped for 1 min in diethylether/n-hexane (1:5, by volume) containing 0.5% (w/v) polyisobutylmethacrylate (Aldrich Chem. Comp. Inc., Milwaukee, Wis.). After drying, the chromatograms were soaked in PBS containing 2% bovine serum albumin (w/v), 0.1% NaN3 (w/v) and 0.1% Tween 20 (by volume) for 2 h at room temperature. The chromatograms were subsequentely covered with radiolabeled bacteria diluted in PBS (2-5×10^6 cpm/ml). Incubation was done for 2 h at room temperature, followed by repeated washings with PBS. The chromatograms were thereafter autoradiographed using XAR-5 X-ray films (Eastman Kodak, Rochester, N.Y.) for 12 h. Autoradiograms were replicated using a CCD camera (Dage-MTI, Inc., Michigan City, Ind.), and analysis of the images was performed using the public domain NIH Image program (developed at the U.S. National Institutes of Health, and available at http://rsb.info.nih.eov/nih-imaee/).
However, several wild type diarrheagenic E. coli strains bind to sialic acid (see e.g. FIG. 6 and FIG. 3). […]

[3] = system: gastric and enterohepatic Helicobacter spp.; assay: Binding of Helicobacter spp. to glycosphingolipids (statements for several species)
Source text: (§2) Gastric species examined in the present study included, Helicobacter mustelae ferret isolates from the National Collection of Type Cultures (NCTC) and the Culture Collection of the University of Gothenberg (CCUG), NCTC 12198/CCUG 25175 (equivalent strains from different sources tested), CCUG 23950 and CCUG 23951, Helicobacterfelis CCUG 28539 from a cat, in addition, H. pylori strains CCUG 17874, CCUG 17875 and a clinical isolate 119/95 were used. Enterohepatic helicobacters of animal origin were purchased from the CCUG including, Helicobacter canes CCUG 33835, Helicobacter bilis CCUG 38995, Helicobacter hepaticus CCUG 33637, and Helicobacterfennelliae (CCUG 18820).
(§3) Binding of Helicobacter spp. to glycosphingolipids, both acid and non-acidfractions. Glycosphingolipids were isolated by standard procedures (Karlsson, 1987). The identity of the purified glycosphingolipids was confirmed by mass spectrometry (Samuelsson et al., 1990), proton NMR spectroscopy (Koerner et al., 1983) and degradation studies (Stellner et al., 1973; Yang and Hakomori, 1971).
(§4) Mixtures of glycosphingolipids (40 μg/lane) or pure compounds (2 μg/lane) were subsequently separated using thin-layer chromatography (TLC) on glass- or aluminum-backed silica gel 60 HPTLC plates (Merck, Darmstadt, Germany), with chloroform/methanot/water (60:35:8, by volume) as solvent system. Chemical detection was accomplished by anisaldehyde (Waldi, 1962). Helicobacter spp. were subjected to ^35S-labeling (Angstrom et al., 1998) and suspended in PBS (10^8 CFU/ml) with a specific activity of approximately 1 cpm per 100 organisms. Binding of the labeled-bacteria to glycosphingolipids separated by TLC was achieved using a bacterial-overlay technique coupled with autoradiography detection using XAR-5 X-ray films (Eastman Kodak, Rochester, N.Y.) as previously described (Hansson et al., 1985).

[4] = system: H. pylori CCUG 17874; assay: Binding of 35S-labeled Helicobacter species to glycosphingolipids on thin-layer chromatograms; set-up: species or system Helicobacter pylori; key: + denotes a significant darkening on the autoradiogram when 2 μg (or 40 μg in the case of the last sample) was applied to TLC plates; − denotes no binding; conditions: 2 μg (40 μg for the glycosphingolipid fraction) on TLC plates
Source text: as §2, §3, §4

[5] = system: H. pylori CCUG 17875; assay: as above; set-up: species or system Helicobacter pylori; key: + denotes a significant darkening on the autoradiogram when 2 μg (or 40 μg in the case of the last sample) was applied to TLC plates; − denotes no binding; conditions: 2 μg (40 μg for the glycosphingolipid fraction) on TLC plates
Source text: as §2, §3, §4

[6] = system: H. felis CCUG 28539; assay: as above; set-up: species or system Helicobacter felis; key: + denotes a significant darkening on the autoradiogram when 2 μg (or 40 μg in the case of the last sample) was applied to TLC plates; − denotes no binding; conditions: 2 μg (40 μg for the glycosphingolipid fraction) on TLC plates
Source text: as §2, §3, §4

[7] = system: H. canis CCUG 33835; assay: as above; set-up: species or system Helicobacter canis; key: + denotes a significant darkening on the autoradiogram when 2 μg (or 40 μg in the case of the last sample) was applied to TLC plates; − denotes no binding; conditions: 2 μg (40 μg for the glycosphingolipid fraction) on TLC plates
Source text: as §2, §3, §4

[8] = system: H. hepaticus CCUG 33637; assay: as above; set-up: species or system Helicobacter hepaticus; key: + denotes a significant darkening on the autoradiogram when 2 μg (or 40 μg in the case of the last sample) was applied to TLC plates; − denotes no binding; conditions: 2 μg (40 μg for the glycosphingolipid fraction) on TLC plates
Source text: as §2, §3, §4

[9] = system: H. mustelae 25715; assay: as above; set-up: species or system Helicobacter mustelae; key: + denotes a significant darkening on the autoradiogram when 2 μg (or 40 μg in the case of the last sample) was applied to TLC plates; − denotes no binding; conditions: 2 μg (40 μg for the glycosphingolipid fraction) on TLC plates
Source text: as §2, §3, §4

[10] = system: H. mustelae CCUG 23950 & 23951; assay: as above; set-up: species or system Helicobacter mustelae; key: + denotes a significant darkening on the autoradiogram when 2 μg (or 40 μg in the case of the last sample) was applied to TLC plates; − denotes no binding; conditions: 2 μg (40 μg for the glycosphingolipid fraction) on TLC plates
Source text: as §2, §3, §4

[11] = system: H. bilis CCUG 38995; assay: as above; set-up: species or system Helicobacter bilis; key: + denotes a significant darkening on the autoradiogram when 2 μg (or 40 μg in the case of the last sample) was applied to TLC plates; − denotes no binding; conditions: 2 μg (40 μg for the glycosphingolipid fraction) on TLC plates
Source text: as §2, §3, §4

[12] = system: EPEC strain; conditions: listed in decreasing order of activity; cited from earlier work
[13] = system: diarrheagenic E. coli; assay: Comparison of binding to dilution series of sialyl-neolactotetraosylceramide variants; set-up: species or system Escherichia coli; conditions: dilution series of glycolipids
Method: as §1
To dissect the sialic acid binding preferences of diarrheagenic E. coli, the binding of bacteria to variants of sialyl-neoleactotetraosylceramide was compared. […] The comparison was performed by using dilution series of glycolipids and comparing the disappearence of the bindings when the amounts of glycolipids were reduced.

[14] = both gastric and enterohepatic Helicobacter spp. tested

Compound	Inhibition of binding of an ETEC and an EPEC strain to Caco-2 cells [1]	Binding of E. coli CCUG 38092 to pure glycosphingolipids after sub-culture ([2]; listed as isoglobotriaosylceramide)	Binding of Helicobacter spp. to glycosphingolipid, in words [3, 14]	Binding of glycosphingolipids to H.pylori 17874 [4]	Binding of glycosphingolipids to H.pylori 17875 [5]	Binding of glycosphingolipids to H.felis 28539 [6]	Binding of glycosphingolipids to H.canis 33835 [7]	Binding of glycosphingolipids to H.hepaticus 33637 [8]	Binding of glycosphingolipids to H.mustelae 25715 [9]	Binding of glycosphingolipids to H.mustelae 23950 & 23951 [10]	Binding of glycosphingolipids to H.bilis 38995 [11]	Binding of E. coli CCUG 38092 to pure glycosphingolipids after sub-culture [2]	Binding of Helicobacter spp. to glycosphingolipid, in words ([3]; H. felis, H. canis, H. hepaticus and H. bilis)	Binding of an EPEC strain to commercial glycolipids [12]	Relative binding affinity, order by disappearance of binding in dilution series [13]
CC(=O)N[C@H]1[C@H]([C@H](O)[C@H](O)CO)OC(O)(C(=O)O)C[C@@H]1O (some centres unmarked) [N-acetylneuraminic acid]	negative	–	–	–	–	–	–	–	–	–	–	–	–	–	–
Galα3Galβ4Glcβ1Cer [No. 7]	–	Selective loss of binding	capable of binding	+	+	+	+	+	+	+	+	–	–	–	–
Galβ3GalNAcβ4(NeuAcα3)Galβ4Glcβ1Cer [No. 29]	inhibiting	–	–	–	–	–	–	–	–	–	–	–	–	–	–
Galβ3GalNAcβ4Galβ4Glcβ1Cer [No. 11]	–	–	–	+	+	+	+	+	+	+	+	remain	binding was demonstrated	observed to bind	–
Galβ3GlcNAcβ3Galβ4Glcβ1Cer [No. 23]	–	–	capable of binding	+	+	+	+	+	+	+	+	–	–	–	–
Galβ4Glcβ1Cer [No. 5]	–	–	capable of binding	+	+	+	+	+	+	+	+	–	–	–	–
NeuAcα3Galβ4GlcNAcβ3Galβ4Glcβ1Cer [No. 31]	–	–	–	–	–	–	–	–	–	–	–	–	–	–	finally
NeuGcα3Galβ4GlcNAcβ3Galβ4GlcNAcβ3Galβ4Glcβ1Cer [No. 36]	–	–	–	+	+	+	+	+	+	+	+	–	–	–	–
NeuGcα3Galβ4GlcNAcβ3Galβ4Glcβ1Cer [No. 33]	–	–	–	–	–	–	–	–	–	–	–	–	–	–	highest affinity
lactosylceramide	negative	–	–	–	–	–	–	–	–	–	–	–	–	negative	–
